From patent US20220202739A1, “ENDOCANNABINOID MIMETIC AND ANTI-INFLAMMATORY COMPOUND CONTAINING COMPOSITIONS, METHODS OF PREPARATION AND USES THEREOF” (priority 2019, published 2022)

Tested on: FLG
Assay: Gene expression custom microarray, pooled keratinocyte line (Example 3): FLG
Format: cell-based, human
Conditions: pooled keratinocytes, 20 ppm, 24 hr
Procedure: Cell cultures: Received and began culture of pooled keratinocyte line from Promocell (C-12006; Lot #448Z026). Cells were seeded into a 75 cm2 flask and 2 6 well dishes for expansion and exposure per manufacturer's protocol using Keratinocyte Growth Medium (C2011B), Keratinocyte Supplement Mix (C39016) and CaCl (C34005). 2 ml of prepared solution were added to each of the 6 wells and 7 ml was added to the 75 cm2 flask.
Experimental phase: When the appropriate quantity of cells were grown, they were detached as described above, but at the final step were seeded into each well of one or more 6 well dishes. Each well received 2 ml of the cells suspended in suspension so they were seeded equally. The dishes were returned to the incubator until 85-95% confluency is reached.
It was at this stage that all wells were rinsed in PBS after aspirating the growth media. The compound(s) to be tested were previously mixed into a suitable solvent (e.g., DMSO or ethanol) that can be diluted to the desired concentration of test compound (10 μl) in the culture wells without exceeding maximum solvent concentrations and adversely effecting cell viability, and mixed with Basal Keratinocyte Media. NOTE: Standard maximum levels of solvent are 0.1% for DMSO and 0.5% for ETOH. The concentration for each tested compound/natural extract is generally listed in the left-hand column of Table 4. For certain compositions (e.g., compositions 15 and 16), other concentrations were used and are noted in the body of Table 4.
Every 2 wells on the 6 well plate served as a biological replicate for the purposes of RNA isolation and genetic expression evaluations making each 6 well dish an n=3 for the test compound contained in the media. […]
At the end of the 24 hr time period, the plates were removed from the incubator, the test media aspirated, and the cells rinsed with PBS. […] Allow 1 minute for saturation of the membrane and then centrifuge for 2 minutes to complete the RNA elution. • Quantify the quantity of RNA and store at −20 C° until use (no more than 1 month) […]

Structure (SMILES)	↑FLG gene expression, fold increase or decrease vs untreated cells
C=C(C)[C@@H]1CCC(C)=C[C@H]1c1c(O)cc(CCCCC)cc1O [CBD, cannabidiol, reference compound]	1.1 fold
CCCCCCCCCCCCCCCC(=O)NCCO [N-palmitoylethanolamide]	28.6 fold
CC(C)[C@]12O[C@H]1[C@@H]1O[C@]13[C@]1(O[C@H]1C[C@H]1C4=C(CC[C@@]13C)C(=O)OC4)[C@@H]2O [Triptolide]	14.4 fold
